Test [1] deals with NCI-H358 cells (K-Ras G12C). The test is described as follows: Potency assay: pERK in NCI-H358 cells. The following applies: Homo sapiens, NCI-H358; H358 KRAS G12C; read-out: pERK EC50. In kind it is cell-based, human. In a few lines: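 Inhibition of cellular pERK after a 4 h treatment, detected by AlphaLISA or In-Cell Western. IC50 from a four-parameter concentration-response fit.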

Test [2] concerns the target NRAS G12C (Homo sapiens (Human), UniProt P01111+P62937, G12C). The test is described as follows: Ras-Raf (BRAF RBD) disruption / FRET / MOA assay, NRAS G12C. The class given is biochemical. The following applies: read-out: IC50* NRAS G12C FRET data. In a few lines:
(§1)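 A 10-point, 3-fold dilution series topping at 30 μM final was incubated 3 h at 25° C with the Ras/cyclophilin A/BRAF RBD mixture.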

Test [3] concerns the target NRAS WT (Homo sapiens (Human), UniProt P01111+P62937). The test is described as follows: Ras-Raf (BRAF RBD) disruption / FRET / MOA assay, NRAS WT. In kind it is biochemical. The following applies: read-out: IC50* NRAS WT FRET data. In a few lines:
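Compounds (30 μM top final, 10-point 3-fold dilutions) incubated 3 h at 25° C with nucleotide-loaded Ras, cyclophilin A and BRAF RBD. Detection with 10 nM anti-His Eu-W1024 and 50 nM anti-GST allophycocyanin over another 1.5 h. Lowered TR-FRET ratio relative to DMSO wells gives IC50.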

The target of test [4] is KRAS G12V (Homo sapiens (Human), UniProt P01116+P62937, G12V). The test is described as follows: Ras-Raf (BRAF RBD) disruption / FRET / MOA assay, KRAS G12V. In kind it is biochemical. The conditions noted are these: read-out: IC50* KRAS G12V FRET data. In a few lines: as §1
Test [5] deals with K-Ras G13C (Homo sapiens (Human), UniProt P01116+P62937, G13C). The test can be described thus: Ras-Raf (BRAF RBD) disruption / FRET / MOA assay, KRAS G13C. In kind it is biochemical. The conditions noted are these: KRAS G13C; Ras-Raf disruption/FRET/MOA assay; read-out: IC50* KRAS G13C FRET data. In a few lines: as §1

The text below walks through data of patent publication US11566007B2, “Ras inhibitors” (Revolution Medicines, Inc., priority 2019, dated 2023).

Bounds are passed on as bounds.

In general, EC50 refers to the concentration giving half of the maximal effect. The IC50 is the midpoint of a concentration-inhibition curve.

K-Ras G13C, sequence (P01116-2 other isoform, or with tags, fused parts or gaps G13C): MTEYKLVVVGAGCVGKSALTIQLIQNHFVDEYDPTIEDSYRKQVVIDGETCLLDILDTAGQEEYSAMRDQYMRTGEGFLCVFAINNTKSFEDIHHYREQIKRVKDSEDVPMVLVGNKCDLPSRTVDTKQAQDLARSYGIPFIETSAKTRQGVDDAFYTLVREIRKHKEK
K-Ras G13C, sequence (P62937 whole entry): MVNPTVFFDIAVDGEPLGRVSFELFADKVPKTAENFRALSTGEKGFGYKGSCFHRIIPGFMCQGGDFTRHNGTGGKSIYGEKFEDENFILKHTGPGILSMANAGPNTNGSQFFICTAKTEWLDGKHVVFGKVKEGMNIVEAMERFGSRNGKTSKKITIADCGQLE
KRAS G12V, sequence (P01116-2 other isoform, or with tags, fused parts or gaps G12V): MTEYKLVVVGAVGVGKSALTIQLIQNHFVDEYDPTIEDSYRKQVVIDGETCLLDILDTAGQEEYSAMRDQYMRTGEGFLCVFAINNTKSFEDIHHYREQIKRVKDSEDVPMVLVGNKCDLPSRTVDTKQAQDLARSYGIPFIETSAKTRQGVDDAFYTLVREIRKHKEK
KRAS G12V, sequence (P62937 whole entry): as the sequence (P62937 whole entry) above
NRAS WT, sequence (P01111 whole entry): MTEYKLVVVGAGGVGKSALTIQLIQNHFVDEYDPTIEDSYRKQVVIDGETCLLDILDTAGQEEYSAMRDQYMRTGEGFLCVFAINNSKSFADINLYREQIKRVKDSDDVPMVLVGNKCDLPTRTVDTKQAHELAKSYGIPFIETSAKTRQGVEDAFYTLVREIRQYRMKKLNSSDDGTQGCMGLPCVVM
NRAS WT, sequence (P62937 whole entry): as the sequence (P62937 whole entry) above
NRAS G12C, sequence (P01111 whole entry G12C): as the sequence (P01111 whole entry) above, with G12C counted along it
NRAS G12C, sequence (P62937 whole entry): as the sequence (P62937 whole entry) above

For the molecule `C=CC(=O)N1CCOC2(C1)CN(C(=O)N(C)[C@H](C(=O)N[C@H]1Cc3cccc(c3)-c3ccc4c(c3)c(c(-c3cccnc3[C@H](C)OC)n4CC(F)(F)F)CC(C)(C)COC(=O)[C@@H]3CCCN(N3)C1=O)C(C)C)C2` (atropisomer, axis not shown) [Example A538], the EC50 in test [1] was less than 5 µM. In addition, the IC50 is 10 to 100 nM in test [2], 100 to 1000 nM in test [3], 100 to 1000 nM in test [4] and 10 to 100 nM in test [5].
Regarding `C=CC(=O)N1C[C@@H](N(C)C(=O)N(C)[C@H](C(=O)N[C@H]2Cc3nc(cs3)-c3ccc4c(c3)c(c(-c3cccnc3[C@H](C)OC)n4CC)CC(C)(C)COC(=O)[C@@H]3CCCN(N3)C2=O)C(C)C)[C@@H](C)C1` (atropisomer, axis not shown) [Example A583], the EC50 in test [1] was less than 5 µM. Moreover, the IC50 was in the range of 100 to 1000 nM in test [2], 100 to 1000 nM in test [3], 1000 to 10000 nM in test [4] and 100 to 1000 nM in test [5].
As to `C=CC(=O)N1CCOC2(CCN(C(=O)N(C)[C@H](C(=O)N[C@H]3Cc4cccc(c4)-c4ccc5c(c4)c(c(-c4cccnc4[C@H](C)OC)n5CC(F)(F)F)CC(C)(C)COC(=O)[C@@H]4CCCN(N4)C3=O)C(C)C)CC2)C1` (atropisomer, axis not shown) [Example A608], in test [1], the EC50 was less than 5 µM. Further, the concentration for half-maximal inhibition (IC50) in test [2] was in the range of 100 to 1000 nM; in test [3], 100 to 1000 nM; in test [4], 100 to 1000 nM; in test [5], 10 to 100 nM.
On to `C=CC(=O)N1CCN(C(=O)N(C)[C@H](C(=O)N[C@H]2Cc3nc(cs3)-c3ccc4c(c3)c(c(-c3cccnc3[C@H](C)OC)n4CC)CC(C)(C)COC(=O)[C@@H]3CCCN(N3)C2=O)C(C)C)CC12CC2` (atropisomer, axis not shown) [Example A417], for which, in test [1], the EC50 is less than 5 µM. For the same molecule, the IC50 lay in the range of 10 to 100 nM in test [2], 10 to 100 nM in test [3], 100 to 1000 nM in test [4] and 10 to 100 nM in test [5].
For the molecule `CCn1c(-c2cccnc2[C@H](C)OC)c2c3cc(ccc31)-c1csc(n1)C[C@H](NC(=O)[C@H](C(C)C)N(C)C(=O)N(C)C1CN(C(=O)/C=C/CN(C)C)C1)C(=O)N1CCC[C@H](N1)C(=O)OCC(C)(C)C2` (atropisomer, axis not shown) [Example A361], in test [1], the EC50 was less than 5 µM. In addition, the IC50 in test [2] lay in the range of 10 to 100 nM; in test [3] it was 100 to 1000 nM; in test [4], 100 to 1000 nM; in test [5], 100 to 1000 nM.
Regarding `C=CC(=O)N1CC[C@H](C(=O)N(C)[C@H](C(=O)N[C@H]2Cc3cc(O)cc(c3)-c3ccc4c(c3)c(c(-c3cc(N5CC(OC)C5)ccn3)n4CC)CC(C)(C)COC(=O)[C@@H]3CCCN(N3)C2=O)C(C)C)C1` [Example A104], the EC50 in test [1] was less than 5 µM. Besides, the IC50 in test [2] lay in the range of 10 to 100 nM; in test [3], 1000 to 10000 nM; in test [4], 1000 to 10000 nM; in test [5], 1000 to 10000 nM.
Turning to `C=CC(=O)N1CCC2(C1)CN(C(=O)N(C)[C@H](C(=O)N[C@H]1Cc3nc(cs3)-c3ccc4c(c3)c(c(-c3cccnc3[C@H](C)OC)n4CC(F)(F)F)CC(C)(C)COC(=O)[C@@H]3CCCN(N3)C1=O)C(C)C)C2` [Example A603], the EC50 in test [1] is less than 5 µM. In addition, the IC50 in test [2] lay within 10 to 100 nM; in test [3], 10 to 100 nM; in test [4] it was 100 to 1000 nM; in test [5] it was 10 to 100 nM.
`CO[C@@H](C)c1ncccc1-c1c2c3cc(ccc3n1CC(F)(F)F)-c1csc(n1)C[C@H](NC(=O)CCOC1CN(C(=O)C#CC(C)(C)N(C)C)C1)C(=O)N1CCC[C@H](N1)C(=O)OCC(C)(C)C2` (atropisomer, axis not shown) [Example A380]: in test [1], the EC50 is less than 5 µM. Moreover, the IC50 in test [2] is less than 10 nM; in test [3], 1000 to 10000 nM; in test [4] it was 100 to 1000 nM; in test [5], 100 to 1000 nM.
